The subject of data set [1] is Human immunodeficiency virus 2. As to the kind of experiment: Antiviral activity against HIV2 ROD infected in human CEM-SS cells assessed as inhibition of virus-induced cytopathic effect by XTT assay. The data set is classed as functional, organism-based, ISOLATE ROD.
A short description of data set [2]: Therapeutic index, ratio of TC50 for human CEM-SS cells to EC50 for HIV1 RF infected in human CEM-SS cells. As to conditions: read-out: TI. In kind it is cell-based.
Data set [3] is described as follows: Therapeutic index, ratio of TC50 for human CEM-SS cells to EC50 for HIV2 ROD infected in human CEM-SS cells. In kind it is cell-based. To be noted: for selectivity ratio: CEM-SS cells, read-out: TI; for TI: cem-ss.
Data set [4] concerns the target Human immunodeficiency virus type 1 reverse transcriptase (Human immunodeficiency virus 1, UniProt Q72547). The data set is described as follows: Inhibition of wild type HIV1 reverse transcriptase assessed as 32P-labeled GMP incorporation into nascent DNA strand.
Data set [5] addresses Human immunodeficiency virus type 1 reverse transcriptase (Human immunodeficiency virus 1, UniProt Q72547, K103N). As to the kind of experiment: Inhibition of HIV1 reverse transcriptase K103N mutant assessed as 32P-labeled GMP incorporation into nascent DNA strand.
The subject of data set [6] is Human immunodeficiency virus 1. As to the kind of experiment: Antiviral activity against HIV1 infected in human HeLa cells expressing CD4-LTR assessed as inhibition of viral entry-related beta galactosidase expression treated for 2 hrs followed by drug wash out measured after 48 hrs by MAGI assay. The data set is classed as functional, organism-based. To be noted: Human immunodeficiency virus 1, HeLa.

The nature of data set [7]: Cytotoxicity against human HeLa cells expressing CD4-LTR by XTT assay. As to conditions: read-out: TC50 (the source's name). The data set is classed as cell-based. Background: Formazan colour is commonly taken as a measure of viable cells.
Data set [8] is described as follows: Therapeutic index, ratio of TC50 human HeLa cells expressing CD4-LTR to EC50 for HIV1 entry inhibition in human HeLa cells expressing CD4-LTR. In kind it is cell-based. To be noted: read-out: TI.
In data set [9] the test system is Human immunodeficiency virus 1. As to the kind of experiment: Antiviral activity against HIV1 infected in human CEM-SS cells assessed as inhibition of viral replication and virus-induced cytopathic effect by dose-response curve analysis. In kind it is functional. To be noted: Human immunodeficiency virus 1, CEM-SS. (Damage to the host cells serves as the signal in cytopathic effect assays.)

Data set [10] concerns Human immunodeficiency virus 2. As to the kind of experiment: Inhibition of HIV2 reverse transcriptase.
Data set [11] concerns Human immunodeficiency virus 2. The data set is described as follows: Antiviral activity against HIV2 assessed as inhibition of viral single round replication at early time point. The data set is classed as functional, organism-based.
The subject of data set [12] is Human immunodeficiency virus 2. As to the kind of experiment: Antiviral activity against HIV2 assessed as inhibition of viral replication treated at time points after viral entry into host cells. The data set is classed as functional, organism-based.
Data set [13] has as its system Human immunodeficiency virus 2. As to the kind of experiment: Inhibition of HIV2 reverse transcriptase assessed as 32P-labeled GMP incorporation into nascent DNA strand at highest concentration.
Data set [14] has as its system Human immunodeficiency virus 1. The data set is described as follows: Antiviral activity against HIV1 RF infected in human CEM-SS cells assessed as inhibition of virus-induced cytopathic effect by XTT assay. The data set is classed as functional, organism-based. As to conditions: Human immunodeficiency virus 1, RF.
A short description of data set [15]: Cytotoxicity against human CEM-SS cells by XTT assay. In kind it is cell-based. To be noted: read-out: TC50 (the source's name).
Where [16] appears, read: Human immunodeficiency virus 2, ISOLATE ROD, CEM-SS, read-out: EC50.

Results on twelve compounds are retold here after ChEMBL document CHEMBL1152465, “Comparative evaluation of the inhibitory activities of a series of pyrimidinedione congeners that inhibit human immunodeficiency virus types 1 and 2” (Antimicrob Agents Chemother, 2008).

Each structure is given as a SMILES string. Active and inactive are the calls of the source. Bounds are passed on as bounds.

A word on the EC50: it is the concentration that produces a half-maximal response. By IC50 is commonly meant the concentration that gives 50% inhibition. In general, EC99 refers to the concentration at which the effect reaches the 99% level. Take `Cc1cc(C)cc(C(=O)c2c(C(C)C)c(=O)[nH]c(=O)n2Cc2ccccc2)c1`: the EC50 worked out at 0.1 µM in data set [1] (setting [16]), 0.03 µM in data set [6] and 0.027 µM in data set [14]. The selectivity ratio in data set [2] turned out to be 840; in data set [3], 223; in data set [8], 726. Further, the results for the IC50 in data set [4] and in [5] were 0.011 µM and 1.4 µM, respectively. Further, the figures for the CC50 in data set [7] and in [15] were 20.1 µM and 17.8 µM, respectively. The EC99 in data set [9] worked out at 1 µM. The result in data set [10], in data set [12] and in [13] was inactive. Besides, in [11], the outcome was Active.
Consider `Cc1cc(C)cc(Sc2c(C(C)C)c(=O)[nH]c(=O)n2CCC2=CCCC2)c1`, for which the concentration for a half-maximal effect (EC50) result in data set [1] (cem-ss) was “Not Active”; in [6], 0.011 µM; in [14], 0.94 µM. For the same compound, the results for the selectivity ratio in data set [2] and in data set [8] were 26 and 1990, respectively. Besides, in data set [3], the TI result is “Not Active”. The IC50 in data set [4] was 2.36 µM; in [5], over 260 µM. For the same compound, the values for the CC50 in [7] and in data set [15] were 21.6 µM and 19.3 µM, respectively. The EC99 in data set [9] was 1 µM. In addition, the result in data set [10], in data set [12] and in [13] was inactive. The result in data set [11] was Active.
As for `CCc1c(C(=O)c2cc(C)cc(C)c2)n(CC2CCCCC2)c(=O)[nH]c1=O`, the half-maximal effective concentration (EC50) stood at 3 µM in data set [1] (setting [16]), 0.05 µM in [6] and 0.054 µM in data set [14]. Moreover, the selectivity ratio in data set [2] was 20300; in data set [3] it was over 362; in data set [8], 20200. Also, the IC50 in data set [4] was 0.173 µM; in data set [5], over 271 µM. Also, the figures for the CC50 in data set [7] and in data set [15] were 1090 µM and 1100 µM, respectively. Moreover, the EC99 in data set [9] is 1 µM. Moreover, the result in data set [10], in data set [12] and in data set [13] was inactive. The result in data set [11] was Active.
For `Cc1cc(C)cc(C(=O)c2cc(=O)[nH]c(=O)n2CC2CC=CC2)c1`, the EC50 in data set [1] (setting [16]) is 30.9 µM; in data set [6], 0.71 µM; in data set [14], 2.16 µM. Further, the selectivity ratio in data set [2] was 40; in [3], 2.8; in data set [8] it was 124. For the same compound, the figures for the IC50 in [4] and in [5] were 119 µM and over 308 µM, respectively. The CC50 in data set [7] and in [15] was 87.3 µM each time. Moreover, the EC99 in data set [9] turned out to be 1 µM. Moreover, the outcome in data set [10], in data set [12] and in data set [13] was inactive. In data set [11], the outcome was Active.
With `Cc1cc(C)cc(C(=O)c2c(C)c(=O)[nH]c(=O)n2CC2CC=CC2)c1`, the EC50 in data set [1] (setting [16]) was 29.6 µM; in [6], 0.68 µM; in [14], 5.91 µM. In addition, the results for the selectivity ratio in data set [2], in data set [3] and in data set [8] were 14, 2.8 and 121, respectively. Besides, the figures for the IC50 in data set [4] and in data set [5] were 12.7 µM and over 295 µM, respectively. The CC50 in [7] and in data set [15] was 81.9 µM in each case. Further, the 99% effect concentration (EC99) in data set [9] amounted to 1 µM. In addition, the outcome in [10], in data set [12] and in [13] was inactive. Besides, the outcome in data set [11] was Active.
Consider `Cc1cc(C)cc(C(=O)c2c(C(C)C)c(=O)[nH]c(=O)n2CC2CCCCC2)c1`, for which the half-maximal effective concentration (EC50) worked out at 0.7 µM in data set [1] (setting [16]), 0.24 µM in data set [6] and 0.0052 µM in data set [14]. In addition, the selectivity ratio turned out to be 8550 in data set [2], 23.8 in data set [3] and 127 in data set [8]. For the same compound, the half-inhibitory concentration (IC50) in data set [4] was 0.008 µM; in data set [5], 16.5 µM. The values for the CC50 in data set [7] and in [15] were 30.4 µM and 16.2 µM, respectively. In data set [9], the EC99 worked out at 1 µM. The outcome in data set [10], in [12] and in data set [13] was inactive. For the same compound, the result in data set [11] was Active.
Regarding `Cc1cc(C)cc(Oc2c(C(C)C)c(=O)[nH]c(=O)n2CC2=CCCC2)c1`, the half-maximal effective concentration (EC50) in [1] (setting [16]) was found to be 0.5 µM; in data set [6], 0.18 µM; in data set [14] it was 0.001 µM. The selectivity ratio in [2] was 23500; in data set [3], 32.2; in data set [8], 116. In addition, the results for the IC50 in [4] and in data set [5] were 0.032 µM and 2.2 µM, respectively. The CC50 in data set [7] amounted to 20.5 µM; in [15], 16.4 µM. Besides, the EC99 in data set [9] was 1 µM. For the same compound, the outcome in data set [10], in data set [12] and in data set [13] was inactive. In addition, the result in [11] was Active.
With `Cc1cc(C)cc(C(=O)c2c(C(C)C)c(=O)[nH]c(=O)n2CCC2CCCC2)c1`, the results for the EC50 result in [1] (cem-ss), in data set [6] and in [14] were “Not Active”, 0.014 µM and 0.02 µM, respectively. Further, the values for the selectivity ratio in data set [2] and in data set [8] were 1180 and 1460, respectively. Besides, the TI result in data set [3] is “Not Active”. Moreover, the IC50 in data set [4] worked out at 0.065 µM; in [5] it was 2.6 µM. Moreover, the CC50 in data set [7] was 20.6 µM; in data set [15], 17.3 µM. Besides, the EC99 in data set [9] came out at 1 µM. The result in data set [10], in data set [12] and in [13] was inactive. Also, in data set [11], the result was Active.
As to `Cc1cc(C)cc(Sc2c(C(C)C)c(=O)[nH]c(=O)n2CC2CC=CC2)c1`, the EC50 in data set [1] (setting [16]) was 15.3 µM; in [6], 0.08 µM; in data set [14] it was 1.22 µM. Besides, the selectivity ratio in [2] was 22; in data set [3], over 1.3; in [8], 307. Besides, the results for the IC50 in data set [4] and in data set [5] were 0.241 µM and over 270 µM, respectively. In addition, the CC50 in [7] came out at 23.2 µM; in [15], 26.5 µM. In addition, in data set [9], the EC99 was found to be 1 µM. Besides, the result in data set [10], in data set [12] and in [13] was inactive. Further, the result in data set [11] was Active.
For the compound `Cc1cc(C)cc(Oc2c(C(C)C)c(=O)[nH]c(=O)n2CCC2C=CCC2)c1` (stereo not given), the results for the EC50 in data set [1] (setting [16]), in data set [6] and in data set [14] were 0.4 µM, 0.009 µM and 0.0059 µM, respectively. Besides, the selectivity ratio amounted to 3560 in data set [2], 21.5 in data set [3] and 1650 in data set [8]. The IC50 in data set [4] was 0.027 µM; in [5] it was 1.5 µM. The CC50 in [7] was determined as 14.2 µM; in [15] it was 7.6 µM. For the same compound, in data set [9], the EC99 came out at 1 µM. Also, the result in data set [10], in [12] and in [13] was inactive. Besides, the result in data set [11] was Active.
As for `CCc1c(Oc2cc(C)cc(C)c2)n(CCC2=CCCC2)c(=O)[nH]c1=O`, the EC50 in data set [1] (setting [16]) is 28.2 µM; in [6] it was 2.62 µM; in data set [14], 0.42 µM. Besides, the selectivity ratio in [2] is 2600; in [3], over 39.7; in data set [8] it was 424. The half-maximal inhibitory concentration (IC50) in data set [4] is 10.3 µM; in data set [5] it was 247 µM. Moreover, the CC50 was found to be 1110 µM in data set [7] and 1100 µM in data set [15]. In addition, the EC99 in data set [9] is 1 µM. Moreover, the outcome in data set [10], in [12] and in data set [13] was inactive. Also, the outcome in data set [11] was Active.
`CCc1c(Sc2ccccc2)n(CC2CC=CC2)c(=O)[nH]c1=O`: the EC50 result in data set [1] (cem-ss) was “Not Active”; in data set [6], 0.02 µM; in [14] it was 0.15 µM. Besides, the values for the selectivity ratio in data set [2] and in data set [8] were 262 and 1250, respectively. The TI result in [3] is “Not Active”. Besides, the IC50 in [4] came to 0.366 µM; in data set [5], 17.1 µM. The CC50 stood at 30.3 µM in data set [7] and 20.7 µM in [15]. Further, in data set [9], the 99% effect concentration (EC99) turned out to be 1 µM. Moreover, the outcome in [10], in data set [12] and in data set [13] was inactive. Further, the outcome in data set [11] was Active.
